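A five-concentration, 48-hour dose response in 96-well plates underlies each endpoint, interpolated linearly between surrounding concentrations. GI50 is the concentration that inhibits growth by half. TGI is the concentration that stops growth completely.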
Key:
Experiment in all cases: NCI anticancer screen, dose series, 48 h
[1] = system: U251 CNS
[2] = system: K-562 leukemia
[3] = system: M14 melanoma
[4] = system: HOP-92 NSCLC
[5] = system: NCI-H23 lung
[6] = system: HCT-15 colon
[7] = system: SF-539 CNS
[8] = system: SK-OV-3 ovarian
[9] = system: MDA-MB-435
[10] = system: MCF7 breast
[11] = system: ACHN renal
[12] = system: HS 578T breast
[13] = system: A498 renal
[14] = system: OVCAR-3 ovarian
[15] = system: PC-3 prostate
[16] = system: UO-31 renal
[17] = system: NCI-H226 lung
[18] = system: SK-MEL-28 melanoma
[19] = system: MDA-MB-231 breast
[20] = system: SK-MEL-5 melanoma
[21] = system: UACC-62 melanoma
[22] = system: HCC-2998 colon
[23] = system: RXF 393 renal
[24] = system: OVCAR-5 ovarian
[25] = system: SN12C renal
[26] = system: SW-620 colon
[27] = system: DU-145 prostate
[28] = system: MOLT-4 leukemia
[29] = system: T-47D breast
[30] = system: NCI-H522 lung
[31] = system: NCI-H460 lung
[32] = system: SNB-75 CNS
[33] = system: NCI/ADR-RES ovarian
[34] = system: HCT-116 colon
[35] = system: HT29 colon
[36] = system: SF-295 CNS
[37] = system: IGROV1 ovarian
[38] = system: SNB-19 CNS
[39] = system: EKVX NSCLC
[40] = system: HL-60(TB) leukemia
[41] = system: BT-549 breast
[42] = system: UACC-257 melanoma
[43] = system: COLO 205 colon
[44] = system: SF-268 CNS
[45] = system: OVCAR-8 ovarian
[46] = system: A549 NSCLC
[47] = system: HOP-62 NSCLC
[48] = system: KM12 colon
[49] = system: OVCAR-4 ovarian
[50] = system: TK-10 renal
[51] = system: CAKI-1 renal
[52] = system: LOX IMVI melanoma
[53] = system: SK-MEL-2 melanoma
[54] = system: MALME-3M melanoma
[55] = system: SR leukemia
[56] = system: 786-0 renal
[57] = system: CCRF-CEM leukemia

COc1ccc([C@H]2c3[nH]c4ccccc4c3C[C@H]3C(=O)N(CCCCCCC(=O)NO)CC(=O)N23)cc1
GI50 [1]: 1.61 µM | TGI [1]: > 33.3 µM | GI50 [2]: 0.895 µM | TGI [2]: > 33.3 µM | GI50 [3]: 1.75 µM | TGI [3]: > 33.3 µM | GI50 [4]: 1.38 µM | TGI [4]: 24.2 µM | GI50 [5]: 1.96 µM | TGI [5]: 28.7 µM | GI50 [6]: 9.05 µM | TGI [6]: > 33.3 µM | GI50 [7]: 2.38 µM | TGI [7]: > 33.3 µM | GI50 [8]: 3.02 µM | TGI [8]: > 33.3 µM | GI50 [9]: 3.32 µM | TGI [9]: 15.1 µM | GI50 [10]: 1.78 µM | TGI [10]: > 33.3 µM | GI50 [11]: 1.92 µM | TGI [11]: 12.8 µM | GI50 [12]: 1.34 µM | TGI [12]: > 33.3 µM | GI50 [13]: 2.91 µM | TGI [13]: 9.55 µM | GI50 [14]: 1.88 µM | TGI [14]: 17.4 µM | GI50 [15]: 2.42 µM | TGI [15]: > 33.3 µM | GI50 [16]: 1.47 µM | TGI [16]: > 33.3 µM | GI50 [17]: 6.26 µM | TGI [17]: > 33.3 µM | GI50 [18]: 1.29 µM | TGI [18]: > 33.3 µM | GI50 [19]: 2.27 µM | TGI [19]: > 33.3 µM | GI50 [20]: 1.89 µM | TGI [20]: 6.89 µM | GI50 [21]: 0.705 µM | TGI [21]: 3.97 µM | GI50 [22]: 1.15 µM | TGI [22]: 5.34 µM | GI50 [23]: 1.33 µM | TGI [23]: 6.12 µM | GI50 [24]: 1.49 µM | TGI [24]: > 33.3 µM | GI50 [25]: 4.19 µM | TGI [25]: > 33.3 µM | GI50 [26]: 1.03 µM | TGI [26]: > 33.3 µM | GI50 [27]: 1.83 µM | TGI [27]: > 33.3 µM | GI50 [28]: 1.11 µM | TGI [28]: > 33.3 µM | GI50 [29]: 0.952 µM | TGI [29]: 25.6 µM | GI50 [30]: 1.4 µM | TGI [30]: > 33.3 µM | GI50 [31]: 2.76 µM | TGI [31]: > 33.3 µM | GI50 [32]: 1.12 µM | TGI [32]: > 33.3 µM | GI50 [33]: 4.26 µM | TGI [33]: > 33.3 µM | GI50 [34]: 1.07 µM | TGI [34]: > 33.3 µM | GI50 [35]: 3.73 µM | TGI [35]: > 33.3 µM | GI50 [36]: 1.91 µM | TGI [36]: 12.4 µM | GI50 [37]: 2.32 µM | TGI [37]: > 33.3 µM | GI50 [38]: 4.34 µM | TGI [38]: > 33.3 µM | GI50 [39]: 13.4 µM | TGI [39]: > 33.3 µM | GI50 [40]: 1.19 µM | TGI [40]: > 33.3 µM | GI50 [41]: 10.9 µM | TGI [41]: > 33.3 µM | GI50 [42]: 1.12 µM | TGI [42]: > 33.3 µM | GI50 [43]: 2.04 µM | TGI [43]: 15 µM | GI50 [44]: 7.7 µM | TGI [44]: > 33.3 µM | GI50 [45]: 1.33 µM | TGI [45]: > 33.3 µM | GI50 [46]: 5.28 µM | TGI [46]: > 33.3 µM | GI50 [47]: 2.45 µM | TGI [47]: > 33.3 µM | GI50 [48]: 2.73 µM | TGI [48]: > 33.3 µM | GI50 [49]: 12.4 µM | TGI [49]: > 33.3 µM | GI50 [50]: 2.86 µM | TGI [50]: 32.7 µM | GI50 [51]: 1.68 µM | TGI [51]: 13.9 µM | GI50 [52]: 1.54 µM | TGI [52]: 5.91 µM | GI50 [53]: 2.79 µM | TGI [53]: > 33.3 µM | GI50 [54]: 0.806 µM | TGI [54]: > 33.3 µM | GI50 [55]: 1.46 µM | TGI [55]: > 33.3 µM | GI50 [56]: 11 µM | TGI [56]: > 33.3 µM | GI50 [57]: 1.48 µM | TGI [57]: > 33.3 µM
